Experiments:
[1] = tested on: OCI-AML3 cells; assay: Proliferation (spheroid) assay, OCI-AML3; format: cell-based; settings: Homo sapiens, OCI-AML-3, 192 h; 8 days; read-out: spheroid assay_OCI-AML3 IC50
Procedure: The anti-proliferative effect of menin/MLL protein/protein interaction inhibitor test compounds was assessed in human leukemia cell lines. The cell line MOLM14 harbors a MLL translocation and expresses the MLL fusion protein MLL-AF9, respectively, as well as the wildtype protein from the second allele. OCI-AML3 cells that carry the NPM1c gene mutation were also tested. […] KO-52 was used as a control cell line containing two MLL (KMT2A) wildtype alleles in order to exclude compounds that display general cytotoxic effects.
MOLM14 cells were cultured in RPMI-1640 (Sigma Aldrich) supplemented with 10% heat-inactivated fetal bovine serum (HyClone), 2 mM L-glutamine (Sigma Aldrich) and 50 μg/ml gentamycin (Gibco). KO-52 and OCI-AML3 cell lines were propagated in alpha-MEM (Sigma Aldrich) supplemented with 20% heat-inactivated fetal bovine serum (HyClone), 2 mM L-glutamine (Sigma Aldrich) and 50 μg/ml gentamycin (Gibco).
In order to assess the anti-proliferative effects, 200 MOLM14 cells, 200° C. […] Spheroid like growth was measured in real-time by live-cell imaging (IncuCyteZOOM, Essenbio, 4× objective) acquiring images at day 8. Confluence (%) as a measure of spheroid size was determined using an integrated analysis tool.
In order to determine the effect of the test compounds over time, the confluence in each well as a measure of spheroid size, was calculated. […]

[2] = tested on: MOLM-13 cells; assay: In vitro proliferation (Cell Titer Glo), Compound 51 with decitabine and venetoclax, MOLM-13; format: cell-based, human; set-up: key to maxR test call (additive / antagonism / synergy): no asterisk: absence of any asterisk indicates an additive effect; antagonism is indicated by “*”; synergy is indicated by “**”; Effect size (BIGL, HSA null model): scale not given here
Procedure: 3a) In Vitro Proliferation—Menin-MLL Inhibitor in Combination with a DNA Hypomethylating Agent (Decitabine) and a BCL2 Inhibitor (Venetoclax)
The effect of Compound 51 in combination with decitabine and venetoclax was determined in proliferation assays.
AML cell lines MOLM-13, OCI-AML3 and MV4-11 were purchased from DSMZ. MOLM-13 were grown in RPMI medium supplemented with 10% Fetal Bovine Serum (FBS) and 1% penicillin/streptomycin. MV4-11 cells were grown in IMDM medium supplemented with 10% FBS and 1% penicillin/streptomycin. OCI-AML3 cells were cultured in 80-90% alpha-MEM (without ribo- and deoxyribonucleosides)+10-20% FBS. All cell lines were cultured at 37° C. in 5% CO2 atmosphere.
AML cell lines (10×10^3 cells/well) were seeded in 96-well plates and grown for 6 days in serum (10%)-containing medium in the presence or absence of inhibitors at the indicated concentrations. Proliferation was analyzed by means of a Cell Titer Glo assay using the CellTiter 96 Aqueous One Solution Cell Proliferation Assay (Promega, Madison, WI, USA), according to the manufacturer's instructions. Data are mean with standard deviation from two to four independent experiments in technical triplicates.
R-based Biochemically Intuitive Generalized Loewe (BIGL) model implemented with a highest single agent (HSA) null model. Specifically, the BIGL methodology was applied to calculate drug-drug interactions (Van der Borght, K., Tourny, A., Bagdziunas, R. et al. BIGL: Biochemically Intuitive Generalized Loewe null model for prediction of the expected combined effect compatible with partial agonism and antagonism. Sci Rep 7, 17935 (2017); Thas, O., Tourny, A., Verbist, B., Hawinkel, S., Nazarov, M., Mutambanengwe, K., & Bijnens, L. Statistical detection of synergy: new methods and a comparative study. Pharmaceutical Statistics (2021)).
Synergy matrix results of the BIGL analysis of the cell line data with HSA as mean model calculated on the basis of the cellular metabolic activity using Cell Titer-Glo assay. Bootstrap confidence intervals are indicated. Effect sizes and their confidence intervals are shown. […] No significant average effect if zero is included in the interval.

[3] = Compound 51 0.05 μM, Decitabine 0.015 μM, Venetoclax 0.001 μM
[4] = Compound 51 0.05 μM, Decitabine 0.35 μM, Venetoclax 0.002 μM
[5] = Compound 51 0.1 μM, Decitabine 0.015 μM, Venetoclax 0.001 μM
[6] = Compound 51 0.1 μM, Decitabine 0.35 μM, Venetoclax 0.002 μM
[7] = Compound 51 1 μM, Decitabine 0.35 μM, Venetoclax 0.002 μM
[8] = Compound 51 10 μM, Decitabine 0.015 μM, Venetoclax 0.001 μM
[9] = Compound 51 10 μM, Decitabine 0.35 μM, Venetoclax 0.002 μM

CC(=O)N1CCC(CN2CC[C@@H](Cc3cn(-c4ccc(F)cc4C(=O)N(C)C(C)C)c4cncc(C)c34)C2)CC1 [Compound 51]
IC50 [1]: 24 nM
Effect size (BIGL, HSA null model) ([2]; Compound 51 0.001 μM, Decitabine 0.0015 μM, Venetoclax 0.0001 μM): −0.04
Effect size (BIGL, HSA null model) ([2]; Compound 51 0.001 μM, Decitabine 0.015 μM, Venetoclax 0.001 μM): −0.05
Effect size (BIGL, HSA null model) ([2]; Compound 51 0.001 μM, Decitabine 0.35 μM, Venetoclax 0.002 μM): 0.01
Effect size (BIGL, HSA null model) ([2]; Compound 51 0.001 μM, Decitabine 1.5 μM, Venetoclax 0.02 μM): −0.04
Effect size (BIGL, HSA null model) ([2]; Compound 51 0.001 μM, Decitabine 3 μM, Venetoclax 0.2 μM): −0.03
Effect size (BIGL, HSA null model) ([2]; Compound 51 0.01 μM, Decitabine 0.0015 μM, Venetoclax 0.0001 μM): −0.02
Effect size (BIGL, HSA null model) ([2]; Compound 51 0.01 μM, Decitabine 0.015 μM, Venetoclax 0.001 μM): −0.17
Effect size (BIGL, HSA null model) ([2]; Compound 51 0.01 μM, Decitabine 0.35 μM, Venetoclax 0.002 μM): −0.1
Effect size (BIGL, HSA null model) ([2]; Compound 51 0.01 μM, Decitabine 1.5 μM, Venetoclax 0.02 μM): −0.05
Effect size (BIGL, HSA null model) ([2]; Compound 51 0.01 μM, Decitabine 3 μM, Venetoclax 0.2 μM): −0.03
Effect size (BIGL, HSA null model) ([2]; Compound 51 0.05 μM, Decitabine 0.0015 μM, Venetoclax 0.0001 μM): −0.03
Effect size (BIGL, HSA null model) [2, 3]: −0.18
maxR test call (additive / antagonism / synergy) [2, 3]: **
Effect size (BIGL, HSA null model) [2, 4]: −0.25
maxR test call (additive / antagonism / synergy) [2, 4]: **
Effect size (BIGL, HSA null model) ([2]; Compound 51 0.05 μM, Decitabine 1.5 μM, Venetoclax 0.02 μM): −0.05
Effect size (BIGL, HSA null model) ([2]; Compound 51 0.05 μM, Decitabine 3 μM, Venetoclax 0.2 μM): −0.03
Effect size (BIGL, HSA null model) ([2]; Compound 51 0.1 μM, Decitabine 0.0015 μM, Venetoclax 0.0001 μM): 0.01
Effect size (BIGL, HSA null model) [2, 5]: −0.16
maxR test call (additive / antagonism / synergy) [2, 5]: **
Effect size (BIGL, HSA null model) [2, 6]: −0.27
maxR test call (additive / antagonism / synergy) [2, 6]: **
Effect size (BIGL, HSA null model) ([2]; Compound 51 0.1 μM, Decitabine 1.5 μM, Venetoclax 0.02 μM): −0.05
Effect size (BIGL, HSA null model) ([2]; Compound 51 0.1 μM, Decitabine 3 μM, Venetoclax 0.2 μM): −0.03
Effect size (BIGL, HSA null model) ([2]; Compound 51 1 μM, Decitabine 0.0015 μM, Venetoclax 0.0001 μM): 0.05
Effect size (BIGL, HSA null model) ([2]; Compound 51 1 μM, Decitabine 0.015 μM, Venetoclax 0.001 μM): −0.12
Effect size (BIGL, HSA null model) [2, 7]: −0.28
maxR test call (additive / antagonism / synergy) [2, 7]: **
Effect size (BIGL, HSA null model) ([2]; Compound 51 1 μM, Decitabine 1.5 μM, Venetoclax 0.02 μM): −0.05
Effect size (BIGL, HSA null model) ([2]; Compound 51 1 μM, Decitabine 3 μM, Venetoclax 0.2 μM): −0.03
Effect size (BIGL, HSA null model) ([2]; Compound 51 10 μM, Decitabine 0.0015 μM, Venetoclax 0.0001 μM): −0.05
Effect size (BIGL, HSA null model) [2, 8]: −0.17
maxR test call (additive / antagonism / synergy) [2, 8]: **
Effect size (BIGL, HSA null model) [2, 9]: −0.29
maxR test call (additive / antagonism / synergy) [2, 9]: **
Effect size (BIGL, HSA null model) ([2]; Compound 51 10 μM, Decitabine 1.5 μM, Venetoclax 0.02 μM): −0.05
Effect size (BIGL, HSA null model) ([2]; Compound 51 10 μM, Decitabine 3 μM, Venetoclax 0.2 μM): −0.03
combination effect on proliferation (in words) ([2]; pairwise matrix of decitabine and Compound 51 in the presence of Venetoclax, MOLM-13, 6-day CellTiter-Glo): synergistically cytotoxic

Source: patent publication US20260191838A1, “COMBINATIONS COMPRISING A MENIN-MLL INHIBITOR AND A BCL-2 INHIBITOR” (JANSSEN PHARMACEUTICA NV, priority 2022, published 2026)
